Test results from patent US9326985B2, “Heteroaryl pyridone and aza-pyridone amide compounds” (Genentech, Inc., priority 2013, dated 2016).

Test system: CD69 by B lymphocytes in human whole blood activated with goat F(ab')2 anti-human IgM
Assay: CD69 Whole Blood Assay (CD69 Hu Blood FACS)
Format: cell-based
Conditions: CD69 positive of CD20 positive cells
Procedure: CD69 is a type II C-type lectin involved in lymphocyte migration and cytokine secretion.
Human blood is obtained from healthy volunteers, with the following restrictions: 1 week drug-free, non-smokers. Blood (approximately 20 mls to test 8 compounds) is collected by venipuncture into Vacutainer® (Becton, Dickinson and Co.) tubes with sodium heparin.
Solutions of Formula I compounds at 10 mM in DMSO are diluted 1:10 in 100% DMSO, then are diluted by three-fold serial dilutions in 100% DMSO for a ten point dose-response curve. The compounds are further diluted 1:10 in PBS and then an aliquot of 5.5 μl of each compound is added in duplicate to a 2 ml 96-well plate; 5.5 μl of 10% DMSO in PBS is added as control and no-stimulus wells. Human whole blood—HWB (100 μl) is added to each well. After mixing the plates are incubated at 37° C., 5% CO2, 100% humidity for 30 minutes. Goat F(ab′)2 anti-human IgM (10 μl of a 500 μg/ml solution, 50 μg/ml final) is added to each well (except the no-stimulus wells) with mixing and the plates are incubated for an additional 20 hours. At the end of the 20 hour incubation, samples are incubated with fluorescent labeled antibodies for 30 minutes, at 37° C., 5% CO2, 100% humidity. Include induced control, unstained and single stains for compensation adjustments and initial voltage settings. Samples are then lysed with PharM Lyse™ (BD Biosciences Pharmingen) according to the manufacturer's instructions. Samples are then transferred to a 96 well plate suitable to be run on the BD Biosciences HTS 96 well system on the LSRII machine. Data acquired and Mean Fluorescence Intensity values were obtained using BD Biosciences DIVA Software. Results are initially analyzed by FACS analysis software (Flow Jo).

[1] = Homo sapiens, Lymphocyte, Table 1, anti-IgM stimulation
[2] = Lymphocyte, Table 1, anti-IgM stimulation
[3] = Lymphocyte, Table 2, anti-IgM stimulation

| Compound | IC50 [2] [nM] | IC50 [3] [nM] | also measured |
| --- | --- | --- | --- |
| Cn1cc(-c2ccnc(N3CCn4c(cc5c4CC(C)(C)C5)C3=O)c2CO)cc(NC(=O)[C@H]2C[C@H]2F)c1=O [Compound 119, (1R,2R)—N-[5-[2-(7,7-dimethyl-4-oxo-1,2,6,8-tetrahydrocyclopenta[3,4]pyrrolo[3,5-b]pyrazin-3-yl)-3-(hydroxymethyl)-4-pyridyl]-1-methyl-2-oxo-3-pyridyl]-2-fluoro-cyclopropanecarboxamide] | – | – | IC50 [1]: 122 nM |
| Cn1cc(-c2ccnc(N3CCn4c(cc5c4CC(C)(C)C5)C3=O)c2CO)cc(NC(=O)C2CCC2)c1=O [Compound 101, N-[5-[2-(7,7-dimethyl-4-oxo-1,2,6,8-tetrahydrocyclopenta[3,4]pyrrolo[3,5-b]pyrazin-3-yl)-3-(hydroxymethyl)-4-pyridyl]-1-methyl-2-oxo-3-pyridyl]cyclobutanecarboxamide] | 4200 | – | – |
| Cn1cc(-c2ccnc(N3CCn4c(cc5c4CC(C)(C)C5)C3=O)c2CO)cc(NC(=O)[C@H]2CCCO2)c1=O (stereo in doubt) [Compound 148, (2R)—N-[5-[2-(7,7-dimethyl-4-oxo-1,2,6,8-tetrahydrocyclopenta[3,4]pyrrolo[3,5-b]pyrazin-3-yl)-3-(hydroxymethyl)-4-pyridyl]-1-methyl-2-oxo-3-pyridyl]tetrahydrofuran-2-carboxamide] | – | > 6100 | – |
| COCC(=O)Nc1cc(-c2ccnc(N3CCn4c(cc5c4CC(C)(C)C5)C3=O)c2CO)cn(C)c1=O [Compound 157, N-[5-[2-(7,7-dimethyl-4-oxo-1,2,6,8-tetrahydrocyclopenta[3,4]pyrrolo[3,5-b]pyrazin-3-yl)-3-(hydroxymethyl)-4-pyridyl]-1-methyl-2-oxo-3-pyridyl]-2-methoxy-acetamide] | – | > 4400 | – |
| Cn1cc(-c2ccnc(N3CCn4c(cc5c4CC(C)(C)C5)C3=O)c2CO)cc(NC(=O)[C@@H]2C[C@@H]2F)c1=O [Compound 120, (1S,2S)—N-[5-[2-(7,7-dimethyl-4-oxo-1,2,6,8-tetrahydrocyclopenta[3,4]pyrrolo[3,5-b]pyrazin-3-yl)-3-(hydroxymethyl)-4-pyridyl]-1-methyl-2-oxo-3-pyridyl]-2-fluoro-cyclopropanecarboxamide] | – | – | IC50 [1]: 85.8 nM |
| Cn1cc(-c2ccnc(N3CCn4c(cc5c4CC(C)(C)C5)C3=O)c2CO)cc(NC(=O)[C@@H]2CCCO2)c1=O (stereo in doubt) [Compound 149, (2S)—N-[5-[2-(7,7-dimethyl-4-oxo-1,2,6,8-tetrahydrocyclopenta[3,4]pyrrolo[3,5-b]pyrazin-3-yl)-3-(hydroxymethyl)-4-pyridyl]-1-methyl-2-oxo-3-pyridyl]tetrahydrofuran-2-carboxamide] | – | > 6300 | – |
| Cn1cc(-c2ccnc(N3CCn4c(cc5c4CC(C)(C)C5)C3=O)c2CO)cc(NC(=O)C2CC2F)c1=O (stereo not drawn) [Compound 117, N-[5-[2-(7,7-dimethyl-4-oxo-1,2,6,8-tetrahydrocyclopenta[3,4]pyrrolo[3,5-b]pyrazin-3-yl)-3-(hydroxymethyl)-4-pyridyl]-1-methyl-2-oxo-3-pyridyl]-2-fluoro-cyclopropanecarboxamide] | – | – | IC50 (Table 1, anti-IgM stimulation): 567 nM |
| CC(=O)Nc1cc(-c2ccnc(N3CCn4c(cc5c4CC(C)(C)C5)C3=O)c2CO)cn(C)c1=O [Compound 121, N-[5-[2-(7,7-dimethyl-4-oxo-1,2,6,8-tetrahydrocyclopenta[3,4]pyrrolo[3,5-b]pyrazin-3-yl)-3-(hydroxymethyl)-4-pyridyl]-1-methyl-2-oxo-3-pyridyl]acetamide] | 535 | – | – |
| Cn1cc(-c2ccnc(N3CCn4c(cc5c4CC(C)(C)C5)C3=O)c2CO)cc(NC(=O)c2cccnc2)c1=O [Compound 109, N-[5-[2-(7,7-dimethyl-4-oxo-1,2,6,8-tetrahydrocyclopenta[3,4]pyrrolo[3,5-b]pyrazin-3-yl)-3-(hydroxymethyl)-4-pyridyl]-1-methyl-2-oxo-3-pyridyl]pyridine-3-carboxamide] | > 5200 | – | – |
